# Source: patent US5945549A, “Production of aqueous solutions of mixtures of formyltertrahydrofuran and hydrates thereof” (Eastman Chemical Company, priority 1999, dated 1999)
# Like-named read-outs stand apart in the source and are kept apart here.
# Columns and labels:
# [1] = type: physicochemical
# Method: Partition coefficients also were determined by the same procedures for using the inert organic solvents 1-decanol (alcohol), isobutyl isobutyrate (ester, IBIB), 2,2,4-trimethyl-1,3-pentanediol monoisobutyrate (alcohol ester, TMPD-MIB), and dimethyl terphthalate (aromatic diester, DMT).
# [2] = Solvent partition coefficient into water, with and without 3-FTHF co-solvent (Examples 45-56); type: physicochemical; conditions: no co-solvent; H2O:(S + CS) 1:1
# Source text: These examples include materials which could act as solvents for the reaction and extraction.
# [3] = Hydration equilibrium 3-FTHF/3-DHMTHF in water by proton nuclear magnetic resonance; type: physicochemical
# Method: The maximum density shown in Table I corresponds approximately to the composition for 3-DHMTHF. […] Confirmation of the formation of 3-DHMTHF when 3-FTHF is added to water comes from proton Nuclear Magnetic Resonance spectroscopy. At room temperature, 50 weight percent solutions of aqueous 3-FTHF show two components: 79 mole percent 3-DHMTHF and only 21 mole percent 3-FTHF. Furthermore, changing the water concentration either directly or by using water miscible solvents reversibly changes the 3-DHMTHF:3-FTHF mole ratio indicating a rapidly established equilibrium between the two components as well as showing their relative stability. The relative amounts of 3-FTHF and 3-DHMTHF at varying water/3-FTHF concentrations as determined by proton nuclear magnetic resonance spectroscopy are shown in Table II wherein the values given for "Water", "3-FTHF" and "Solvent" are weight percentages based on the total weight of the 3 component composition and "Solvent" refers to CD3 COCD3 (NMR solvent).
# In Table II the value given for the 3-FTHF component is the amount of 3-FTHF dissolved in the composition although in aqueous solution it exists both as 3-FTHF and 3-DHMTHF. Some of the 3-FTHF in the water solution also exists in the form of an acetal, e.g., depending on the concentration, up to about 70 mole percent (at very high concentrations) but usually only about 0.5 mole percent (at 50 weight percent concentration) of the 3-FTHF is in the form of an acetal having the structure: [drawing 4] wherein n is 2.
# [4] = Share of diol, hemiacetal or acetal in aqueous solution; type: physicochemical
# [5] = 3-FTHF solubility in solvent; type: physicochemical
# Method: Partition coefficients also were determined by the same procedures for using the inert organic solvents 1-decanol (alcohol), isobutyl isobutyrate (ester, IBIB), 2,2,4-trimethyl-1,3-pentanediol monoisobutyrate (alcohol ester, TMPD-MIB), and dimethyl terphthalate (aromatic diester, DMT). The 3-FTHF:Solvent:Water volume ratios used in each of Examples 37-44 was 3:3:4. The partition coefficients are shown in Table VI wherein the values specified for 3-FTHF Solubility in Solvent are weight percentages, the values given for Temp are the temperatures (° C.), K3FTHF is the partition coefficient for 3-FTHF determined as described above and Ksolvent is the coefficient for the solvent utilized in each example determined form its solubility in the two phase and affected by the presence of the 3-FTHF substrate.
# [6] = Partition coefficient of triphenylphosphine between toluene and water; type: physicochemical
# Source text: Rhodium, the other component of the catalyst, exists primarily as rhodium (I) hydrido carbonyl bis (triphenylphosphine) complex and accompanies the triphenylphosphine with a similar partition coefficient.
# [7] = 3-FTHF:Solvent:Water 3:3:4 by volume, 24.1-25.7 °C
# [8] = 50 weight percent aqueous 3-FTHF, room temperature
# [9] = Water 6.1, 3-FTHF 6.3, CD3COCD3 87.6 wt %
# [10] = Water 10.4, 3-FTHF 13.8, CD3COCD3 75.8 wt %
# [11] = Water 15.2, 3-FTHF 20.2, CD3COCD3 64.6 wt %
# [12] = Water 19.8, 3-FTHF 26.2, CD3COCD3 54.0 wt %
# [13] = Water 24.1, 3-FTHF 32.0, CD3COCD3 43.9 wt %
# [14] = Water 31.4, 3-FTHF 43.5, CD3COCD3 25.1 wt %
# [15] = Water 36.9, 3-FTHF 46.6, CD3COCD3 16.5 wt %
# [16] = Water 37.6, 3-FTHF 54.4, CD3COCD3 8.0 wt %
# [17] = Water 45.0, 3-FTHF 55.0, CD3COCD3 0.0 wt %
molecule,measurement,setting,value
"2,2,4-trimethyl-1,3-pentanediol monoisobutyrate [TMPD-MIB, reference compound]",KSolvent partition coefficient,[1],0.00481
"CCCCCCCCCCO [1-Decanol, 1-decanol, reference compound]",KSolvent partition coefficient,[1]; [7],0.01695
same,Solvent Partition Coefficient,[2],0.00028
"OC(O)C1CCOC1 (stereo not shown) [3-DHMTHF, 3-Dihydroxymethyltetrahydrofuran]",Mole Percent in equilibrium,[3]; [8],79 mole percent
same,Mole Percent in equilibrium,[3]; [9],21.6 Mole Percent
same,Mole Percent in equilibrium,[3]; [10],31.2 Mole Percent
same,Mole Percent in equilibrium,[3]; [11],41.9 Mole Percent
same,Mole Percent in equilibrium,[3]; [12],48.9 Mole Percent
same,Mole Percent in equilibrium,[3]; [13],56.6 Mole Percent
same,Mole Percent in equilibrium,[3]; [14],66.7 Mole Percent
same,Mole Percent in equilibrium,[3]; [15],71.2 Mole Percent
same,Mole Percent in equilibrium,[3]; [16],75.1 Mole Percent
same,Mole Percent in equilibrium,[3]; [17],79.0 Mole Percent
"O=CC1CCOC1 (stereo not shown) [3-FTHF, 3-formyltetrahydrofuran]",3-FTHF in the form of an acetal (n is 2),[4]; at 50 weight percent concentration,about 0.5 mole percent
same,3-FTHF in the form of an acetal (n is 2),[4]; at very high concentrations,up to 70 mole percent
same,3-FTHF Solubility in Solvent,[5]; in 1-decanol,100 weight percentages
same,3-FTHF Solubility in Solvent,[5]; in DIPB,100 weight percentages
same,3-FTHF Solubility in Solvent,[5]; in DMT,100 weight percentages
same,3-FTHF Solubility in Solvent,[5]; in IBIB,100 weight percentages
same,3-FTHF Solubility in Solvent,[5]; in TMPD-MIB,100 weight percentages
same,3-FTHF Solubility in Solvent,[5]; in isooctane,2.36 weight percentages
same,3-FTHF Solubility in Solvent,[5]; in n-decane,0.93 weight percentages
same,3-FTHF Solubility in Solvent,[5]; in p-xylene,100 weight percentages
same,3-FTHF Solubility in Solvent,[5]; in toluene,100 weight percentages
same,Mole Percent in equilibrium,[3]; [8],21 mole percent
same,Mole Percent in equilibrium,[3]; [9],78.4 Mole Percent
same,Mole Percent in equilibrium,[3]; [10],68.8 Mole Percent
same,Mole Percent in equilibrium,[3]; [11],58.1 Mole Percent
same,Mole Percent in equilibrium,[3]; [12],51.1 Mole Percent
same,Mole Percent in equilibrium,[3]; [13],43.4 Mole Percent
same,Mole Percent in equilibrium,[3]; [14],33.3 Mole Percent
same,Mole Percent in equilibrium,[3]; [15],28.8 Mole Percent
same,Mole Percent in equilibrium,[3]; [16],24.9 Mole Percent
same,Mole Percent in equilibrium,[3]; [17],21.0 Mole Percent
"CC(C)c1cccc(C(C)C)c1 [DIPB, 1,3-diisopropylbenzene, reference compound]",KSolvent partition coefficient,[1]; [7],0.01904
"COC(=O)c1ccccc1C(=O)OC [DMP, dimethyl phthalate]",Solvent Partition Coefficient,[2],0.00731
"COC(=O)c1ccc(C(=O)OC)cc1 [DMT, dimethyl terphthalate, reference compound]",KSolvent partition coefficient,[1],0.02526
"CC(C)COC(=O)C(C)C [IBIB, isobutyl isobutyrate, reference compound]",KSolvent partition coefficient,[1]; [7],0.00772
same,Solvent Partition Coefficient,[2],0.00116
"CC(C)CC(C)(C)C [Isooctane, isooctane, reference compound]",KSolvent partition coefficient,[1],0.00746
"CCCCCCCCCC [n-Decane, decane, reference compound]",KSolvent partition coefficient,[1],0.00661
"Cc1ccc(C)cc1 [p-Xylene, p-xylene, reference compound]",KSolvent partition coefficient,[1]; [7],0.0074
same,Solvent Partition Coefficient,[2],0.00015
c1ccc(P(c2ccccc2)c2ccccc2)cc1 [triphenylphosphine],effective partition coefficient of triphenylphosphine,[6]; 10 percent emulsion,0.095
same,partition coefficient of triphenylphosphine between toluene and water,"[6]; Example 57, 50:1 triphenylphosphine:toluene, 1:1 water:triphenylphosphine+toluene by volume",0.00433
same,partition coefficient of triphenylphosphine,"[6]; aqueous/toluene, room temperature, 50 weight percent water in aqueous phase",0.0043
